Values of other authors as cited in patent publication US20090239791A1, “PHARMACEUTICAL COMPOSITION CONTAINING LIPOPHILIC SUBSTANCE WHICH INHIBITS IL-2 PRODUCTION” (Astellas Pharma Inc., priority 2007, published 2009).

Tested on: human mixed lymphocyte reaction
Conditions: Transplant Proceedings, No 5, Suppl 6, 36-39, 1987

C=CC[C@@H]1/C=C(\C)C[C@H](C)C[C@H](OC)C2O[C@@](O)(C(=O)C(=O)N3CCCC[C@H]3C(=O)O[C@H](/C(C)=C/[C@@H]3CC[C@@H](O)[C@H](OC)C3)[C@H](C)[C@@H](O)CC1=O)[C@H](C)C[C@@H]2OC (relative stereo) [Tacrolimus, [3S-[3R*[E(1S*,3S*,4S*)],4S*,5R*,8S*,9E,12R*,14R*,15S*,16R*,18S*,19S*,26aR*]]-5,6,8,11,12,13,14,15,16,17,18,19,24,25,26,26a-hexadecahydro-5,19-dihydroxy-3-[2-(4-hydroxy-3-methoxycyclohexyl)-1-methylethenyl]-14,16-dimethoxy-4,10,12,18-tetramethyl-8-(2-propenyl)-15,19-epoxy-3H-pyrido[2,1-c][1,4]oxaazacyclotricosine-1,7,20,21(4H,23H)-tetrone, monohydrate]
IC50 (a 50% inhibitory drug concentration in a human mixed lymphocyte reaction): 0.18 ng/mL
